Columns and labels:
[1] = system: orthotopic PAN02 pancreatic tumors; experiment: Orthotopic PAN02 pancreatic tumor study in lean and obese mice; format: in vivo, mouse; conditions: for gene and protein expression of activated PSC marker αSMA in tumors: losartan 90 mg/Kg i.p. every day
Text: (§1) Wild-type (WT) C57BL/6 and FVB male mice were originally obtained from Jackson Laboratory (The Jackson Laboratory, Bar Harbor, Me.) and bred and maintained in our defined-flora colony. KPC (Ptf1-Cre/LSL-KRAS^G12D/p53-R172H) and iKRAS (p48-Cre;R26-rtTa-IRES-EGFP;TetO-Kras^G12D mice) mice were obtained. To generate an obese model, mice (6-week old) were given either 10% or a 60% fat diet (D12450J and D12492, Research Diets, New Brunswick, N.J.) for 10 weeks (or until tumor collection in spontaneous models), as previously described (Surwit, R. S., et al. Metabolism: clinical and experimental 44, 645-651 (1995)). For implanted tumor experiments, AK4.4 cells (KrasG12D and p53 ? /) were isolated from mice generating spontaneous pancreatic tumors (Ptf1-Cre/LSL-Kras^G12D/p53Lox/ ? ) (Bardeesy, N., et al. Proc Natl Acad Sci USA 103, 5947-5952 (2006)). Orthotopic pancreatic tumors were generated by implanting a small piece (1 mm^3) of viable tumor tissue (from a source tumor in a separate animal) into the pancreas of a 6-8 week-old male lean or obese FVB (AK4.4 model) or C57BL/6 (PAN02 model) mouse. PAN02 tumor chunks and AK4.4 cells were authenticated by IDEXX laboratories. (PAN02: IDEXX RADIL Case #22366-2013. AK4.4: IDEXX RADIL Case #27818-2014). For AT1- and AT2-knockout studies, tumors were implanted into the pancreas of a 6-8-week-old male lean or obese C57BL/6, agtr1a−/− or agtr2−/− mice. With exception of PAN02, these orthotopically grown pancreatic cancers are characterized by a dense collagenous stroma, a hallmark of pancreatic cancer desmoplasia (Diop-Frimpong, B., et al. Proc Natl Acad Sci USA 108, 2909-2914 (2011)).
(§2) For all experiments unless specified below, mice bearing orthotopic PAN02 or AK4.4 pancreatic tumors were randomized into treatment groups (or no treatment) and tumors were collected at day 21 after implantation. For tumor growth study with chemotherapy, mice were divided into treatment groups 7 days after implantation, and treated with either 5-FU (30 mg/Kg i.v. every 4 days) or an equal volume of saline by intravenous injection on days 7, 11 and 15 after implantation, with tumors collected at day 19. For tumor growth study with losartan, mice were treated with losartan (90 mg/Kg i.p. every day) or an equal volume of PBS intraperitoneally starting on day 5 after implantation and for the duration of the study. In the combined experiment of losartan and 5-FU, the same protocol was used for each drug as described above. TAN depletion by a Ly6G specific inhibitor (BioExcell, 4 mg/Kg i.p. every 2 days) was administered to PAN02 bearing animals starting at day 1 or day 7, and to AK4.4 bearing animals at day 7. IL-1β inhibition (MM425B, Endogen/Pierce Biotechnology, 2 mg/Kg i.p. every 2 days) was administered to PAN02 bearing animals starting at day 7. At the completion of the study, adipose tissue and tumor samples were collected, weighed, and processed for further analysis. When spontaneous models were used, tumors were collected when palpable.
(§3) To assess obesity-induced ECM remodeling and fibrosis fibrillar collagen accumulation was quantified using second harmonic generation imaging, and collagen-I content, hyaluronan, MMPs levels and fibrosis related signaling pathways (e.g. AT-I, CTGF, TSP 1, TGFβ1, and P38/ERK signaling) were measured by rtPCR array, immunohistochemistry and immunoblotting. The topographical distribution and density of cancer-associated fibroblasts (CAFs) in tumor sections was detected by staining for αSMA activated fibroblast marker. Vessel morphology and perfusion was assessed using standard histological analyses.
Mice bearing orthotopic PAN02 were injected with 30 mg/kg of 5-FU 3 weeks after tumor implantation, administered retro-orbitally 30 min prior to tumor removal. The tissue was dabbed of excess blood and then snap-frozen in liquid nitrogen for analysis. […]

[2] = system: orthotopic AK4.4 pancreatic tumors; experiment: Orthotopic AK4.4 pancreatic tumor study in lean and obese mice; format: in vivo, mouse; conditions: for gene and protein expression of activated PSC marker αSMA in tumors: losartan 90 mg/Kg i.p. every day
Text: as §1, §2, §3
Tumor-bearing mice were perfused through intracardiac injection of PBS and sacrificed. Pancreatic tumor tissues were harvested, minced, and digested at 37° C. for 1 h with DMEM containing collagenase type 1A (1.5 mg/mL), hyaluronidase (1.5 mg/mL), and DNase (2 mg/mL). The digestion mixtures were filtered through 70-μm cell strainers. […]

[3] = system: Marfan syndrome; conditions: children; cited from earlier work
[4] = system: mouse models of Marfan syndrome; conditions: affected mice; cited from earlier work
[5] = system: PDACs; experiment: Effect of losartan on immune cell populations in tumors (model not stated); set-up: species or system mice; conditions: mouse, in vivo
Experimental: FIGS. 21A, 21B, and 21C show the effect of losartan on the immune tumor microenvironment. […] Error bars represent standard error of the mean. P values were determined by the Student t-test in A. *, P<0.05, **, P<0.01, ***, P<0.001.

[6] = system: cardiac and renal fibrosis; conditions: in vivo; cited from earlier work
[7] = system: PDAC; conditions: in vivo; cited from earlier work
[8] = lean mice, 3 doses of 5-FU 30 mg/kg BW q4d
[9] = obese mice, 3 doses of 5-FU 30 mg/kg BW q4d
[10] = obese mice, effects only modest in lean animals
[11] = obese, but not lean mice, losartan

What does the source list for O=c1[nH]cc(F)c(=O)[nH]1 [Example 5-FU, 5-fluorouracil]?
reduction in tumor weight as compared to untreated controls [1, 8]: 50%; effect on tumor weight [1, 9]: did not significantly reduce tumor weight; delivery of 5-FU to tumors ([1]; tumors in obese mice versus lean, 30 mg/kg, 30 min prior to tumor removal): decreased; reduction in tumor weight as compared to untreated controls [2, 8]: 50%; effect on tumor weight [2, 9]: did not significantly reduce tumor weight

With CCCCc1nc(Cl)c(CO)n1Cc1ccc(-c2ccccc2-c2nn[nH]n2)cc1 [losartan] as the compound, how does the “gene and protein expression of activated PSC marker αSMA in tumors” value ([1]; lean mice) read?
Its value is “only mildly”.

What about the “response to chemotherapy with AT1 blockade” value ([1]; obese but not lean animals, losartan plus 5-FU) of the same compound?
Its value is “enhanced”.

What about the “tumor weight, losartan monotherapy” value ([1]; obese mice) of the same compound?
The value was “reduced tumor weight”.

What about the “gene and protein expression of activated PSC marker αSMA in tumors” value ([1]; obese mice) of the same compound?
Its value is “reduce”.

And the “obesity-induced abnormal expression of desmoplasia-related markers and AT1 downstream signaling” value [1, 10]?
The value was “normalized”.

What about the “gene and protein expression of collagen-I and fibrillar collagen in tumors” value [1, 11] of the same compound?
Its value is “decrease”.

What about the “gene and protein expression of activated PSC marker αSMA in tumors” value ([2]; lean mice) of the same compound?
The value was “only mildly”.

And the “tumor weight, losartan monotherapy” value ([2]; obese mice)?
Its value is “reduced tumor weight”.

And the “gene and protein expression of activated PSC marker αSMA in tumors” value ([2]; obese mice)?
The value was “reduce”.

What about the “obesity-induced abnormal expression of desmoplasia-related markers and AT1 downstream signaling” value [2, 10] of the same compound?
Its value is “normalized”.

What about the “response to chemotherapy with AT1 blockade” value ([2]; obese mice, somewhat effective in the lean setting, losartan plus 5-FU) of the same compound?
Its value is “improved therapeutic response in tumors to a greater extent”.

What about the “gene and protein expression of collagen-I and fibrillar collagen in tumors” value [2, 11] of the same compound?
Its value is “decrease”.

And the “progression of aortic and muscular lesions” value [3]?
The value was “can strikingly prevent progression of aortic and muscular lesions”.

What about the “blood vessel architecture and aortic aneurysms” value [4] of the same compound?
Its value is “striking effects in improving blood vessel architecture and prevented the development of aortic aneurysms”.

And the “enrichment for GR(+)F480(−) cells within the CD45 population” value [5]?
The value was “tended to decrease the enrichment for GR(+)F480(−) cells”.

And the “enrichment for T regulatory cells within CD4 cells” value [5]?
Its value is “tended to decrease the enrichment”.

What about the “incidence of cardiac and renal fibrosis” value [6] of the same compound?
The value was “reduce the incidence of cardiac and renal fibrosis”.

What about the “desmoplasia in PDAC” value [7] of the same compound?
The value was “can reduce desmoplasia in PDAC”.

And the “vascular perfusion, drug delivery and chemotherapy effectiveness” value [7]?
The value was “can enhance vascular perfusion by decompressing vessels, leading to improved drug delivery and chemotherapy effectiveness”.

Source: patent US11433136B2, “Polyacetal polymers, conjugates, particles and uses thereof” (THE GENERAL HOSPITAL CORPORATION, priority 2015, dated 2022)
